Source: ChEMBL document CHEMBL4477271, “Synthesis and antitumor activity evaluation of 4,6-disubstituted quinazoline derivatives as novel PI3K inhibitors” (Bioorg Med Chem Lett, 2016)

Assays:
HCT-116 = assay: Antiproliferative activity against human HCT116 cells harboring PI3CA H1047R mutant after 72 hrs by MTT assay; type: functional, cell-based; conditions: HCT-116, 72 h
MCF7 = assay: Antiproliferative activity against human MCF7 cells harboring PI3CA E545K mutant after 72 hrs by MTT assay; type: functional, cell-based; conditions: MCF7, 72 h
[1] = target: Phosphatidylinositol 4,5-bisphosphate 3-kinase catalytic subunit alpha isoform (Homo sapiens, UniProt P42336); assay: Inhibition of PI3Kalpha (unknown origin) assessed as reduction in ATP depletion using lipid substrate after 40 mins by Kinase-Glo luminescent assay
[2] = target: T1, Phosphatidylinositol 4,5-bisphosphate 3-kinase catalytic subunit delta isoform (Homo sapiens, UniProt O00329); assay: Inhibition of PI3Kdelta (unknown origin) assessed as reduction in ATP depletion using lipid substrate after 40 mins by Kinase-Glo luminescent assay
T1 sequence (O00329 whole entry): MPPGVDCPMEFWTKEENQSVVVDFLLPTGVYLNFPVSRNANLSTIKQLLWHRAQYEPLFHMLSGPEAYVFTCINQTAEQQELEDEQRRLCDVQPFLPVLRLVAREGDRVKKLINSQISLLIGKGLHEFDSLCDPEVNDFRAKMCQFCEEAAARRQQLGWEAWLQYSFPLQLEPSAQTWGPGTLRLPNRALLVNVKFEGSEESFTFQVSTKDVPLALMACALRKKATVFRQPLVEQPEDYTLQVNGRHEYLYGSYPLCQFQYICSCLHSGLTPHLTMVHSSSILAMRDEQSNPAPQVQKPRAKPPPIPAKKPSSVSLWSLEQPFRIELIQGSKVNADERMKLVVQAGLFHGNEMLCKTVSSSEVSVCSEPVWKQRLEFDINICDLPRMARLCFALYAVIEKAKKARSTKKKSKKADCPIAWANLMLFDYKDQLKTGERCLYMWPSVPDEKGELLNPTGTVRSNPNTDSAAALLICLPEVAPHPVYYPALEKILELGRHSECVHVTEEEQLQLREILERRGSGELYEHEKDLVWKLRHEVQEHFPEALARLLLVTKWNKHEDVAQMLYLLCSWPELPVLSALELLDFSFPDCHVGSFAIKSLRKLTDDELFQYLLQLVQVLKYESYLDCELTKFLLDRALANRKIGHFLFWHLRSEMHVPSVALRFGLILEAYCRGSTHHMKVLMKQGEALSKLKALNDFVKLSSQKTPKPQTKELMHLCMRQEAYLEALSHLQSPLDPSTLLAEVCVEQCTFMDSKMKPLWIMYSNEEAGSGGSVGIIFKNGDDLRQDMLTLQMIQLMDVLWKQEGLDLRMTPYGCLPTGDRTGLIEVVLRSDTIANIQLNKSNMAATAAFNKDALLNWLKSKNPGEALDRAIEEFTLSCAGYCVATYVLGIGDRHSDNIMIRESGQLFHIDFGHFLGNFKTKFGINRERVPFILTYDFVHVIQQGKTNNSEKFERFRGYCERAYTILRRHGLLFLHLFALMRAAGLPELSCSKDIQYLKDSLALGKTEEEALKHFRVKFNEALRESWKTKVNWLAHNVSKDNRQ

[3] = target: Phosphatidylinositol 4,5-bisphosphate 3-kinase catalytic subunit beta isoform (Homo sapiens, UniProt P42338); assay: Inhibition of PI3Kbeta (unknown origin) assessed as reduction in ATP depletion using lipid substrate after 40 mins by Kinase-Glo luminescent assay
CCRF S-180 [4] = assay: Antitumor activity against mouse S180 cells implanted in mouse assessed as tumor growth inhibition at 50 mg/kg, po qd for 8 days relative to control; type: functional; conditions: CCRF S-180, po, 192 h, read-out: TGI
[5] = Toxicity in mouse implanted with mouse S180 cells assessed as body weight loss at 5 to 50 mg/kg, po qd for 8 days; type: organism-based; conditions: in vivo, 192 h
CCRF S-180 [6] = assay: Antitumor activity against mouse S180 cells implanted in mouse assessed as tumor growth inhibition at 15 mg/kg, po qd for 8 days relative to control; type: functional; conditions: CCRF S-180, po, 192 h, read-out: TGI
[7] = target: Phosphatidylinositol 4,5-bisphosphate 3-kinase catalytic subunit gamma isoform (Homo sapiens, UniProt P48736); assay: Inhibition of PI3Kgamma (unknown origin) assessed as reduction in ATP depletion using lipid substrate after 40 mins by Kinase-Glo luminescent assay
CCRF S-180 [8] = assay: Antitumor activity against mouse S180 cells implanted in mouse assessed as tumor growth inhibition at 5 mg/kg, po qd for 8 days relative to control; type: functional; conditions: CCRF S-180, po, 192 h, read-out: TGI

Chain of Phosphatidylinositol 4,5-bisphosphate 3-kinase catalytic subunit alpha isoform (P42336 whole entry, canonical isoform): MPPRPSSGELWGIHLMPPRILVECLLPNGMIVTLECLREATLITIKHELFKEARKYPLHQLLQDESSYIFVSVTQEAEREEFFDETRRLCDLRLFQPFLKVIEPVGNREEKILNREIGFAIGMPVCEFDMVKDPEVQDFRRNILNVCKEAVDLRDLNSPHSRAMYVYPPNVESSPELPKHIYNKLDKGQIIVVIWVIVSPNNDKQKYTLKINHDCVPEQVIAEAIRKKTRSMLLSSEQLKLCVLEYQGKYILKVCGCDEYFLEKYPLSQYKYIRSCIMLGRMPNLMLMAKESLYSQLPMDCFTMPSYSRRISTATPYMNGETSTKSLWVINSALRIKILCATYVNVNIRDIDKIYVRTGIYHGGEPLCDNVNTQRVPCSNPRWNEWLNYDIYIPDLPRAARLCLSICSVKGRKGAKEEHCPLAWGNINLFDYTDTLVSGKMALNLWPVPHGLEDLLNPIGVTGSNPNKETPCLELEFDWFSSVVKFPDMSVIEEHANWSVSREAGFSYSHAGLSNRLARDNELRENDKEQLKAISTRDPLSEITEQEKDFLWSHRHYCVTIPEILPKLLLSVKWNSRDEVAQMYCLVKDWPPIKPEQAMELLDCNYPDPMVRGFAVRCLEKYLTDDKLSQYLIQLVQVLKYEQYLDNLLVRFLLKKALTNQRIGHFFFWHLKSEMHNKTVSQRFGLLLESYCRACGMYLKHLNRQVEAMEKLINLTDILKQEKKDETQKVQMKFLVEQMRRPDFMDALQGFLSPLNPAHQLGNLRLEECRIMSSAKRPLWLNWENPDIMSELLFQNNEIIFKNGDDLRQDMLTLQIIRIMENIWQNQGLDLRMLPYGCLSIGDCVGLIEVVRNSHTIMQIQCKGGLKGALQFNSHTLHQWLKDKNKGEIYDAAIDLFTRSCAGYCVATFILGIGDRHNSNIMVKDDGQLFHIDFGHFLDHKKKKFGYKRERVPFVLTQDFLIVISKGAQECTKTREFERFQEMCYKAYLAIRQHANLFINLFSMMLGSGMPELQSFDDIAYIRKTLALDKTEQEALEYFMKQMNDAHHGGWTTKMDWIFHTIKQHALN
Chain of Phosphatidylinositol 4,5-bisphosphate 3-kinase catalytic subunit beta isoform (P42338 whole entry, canonical isoform): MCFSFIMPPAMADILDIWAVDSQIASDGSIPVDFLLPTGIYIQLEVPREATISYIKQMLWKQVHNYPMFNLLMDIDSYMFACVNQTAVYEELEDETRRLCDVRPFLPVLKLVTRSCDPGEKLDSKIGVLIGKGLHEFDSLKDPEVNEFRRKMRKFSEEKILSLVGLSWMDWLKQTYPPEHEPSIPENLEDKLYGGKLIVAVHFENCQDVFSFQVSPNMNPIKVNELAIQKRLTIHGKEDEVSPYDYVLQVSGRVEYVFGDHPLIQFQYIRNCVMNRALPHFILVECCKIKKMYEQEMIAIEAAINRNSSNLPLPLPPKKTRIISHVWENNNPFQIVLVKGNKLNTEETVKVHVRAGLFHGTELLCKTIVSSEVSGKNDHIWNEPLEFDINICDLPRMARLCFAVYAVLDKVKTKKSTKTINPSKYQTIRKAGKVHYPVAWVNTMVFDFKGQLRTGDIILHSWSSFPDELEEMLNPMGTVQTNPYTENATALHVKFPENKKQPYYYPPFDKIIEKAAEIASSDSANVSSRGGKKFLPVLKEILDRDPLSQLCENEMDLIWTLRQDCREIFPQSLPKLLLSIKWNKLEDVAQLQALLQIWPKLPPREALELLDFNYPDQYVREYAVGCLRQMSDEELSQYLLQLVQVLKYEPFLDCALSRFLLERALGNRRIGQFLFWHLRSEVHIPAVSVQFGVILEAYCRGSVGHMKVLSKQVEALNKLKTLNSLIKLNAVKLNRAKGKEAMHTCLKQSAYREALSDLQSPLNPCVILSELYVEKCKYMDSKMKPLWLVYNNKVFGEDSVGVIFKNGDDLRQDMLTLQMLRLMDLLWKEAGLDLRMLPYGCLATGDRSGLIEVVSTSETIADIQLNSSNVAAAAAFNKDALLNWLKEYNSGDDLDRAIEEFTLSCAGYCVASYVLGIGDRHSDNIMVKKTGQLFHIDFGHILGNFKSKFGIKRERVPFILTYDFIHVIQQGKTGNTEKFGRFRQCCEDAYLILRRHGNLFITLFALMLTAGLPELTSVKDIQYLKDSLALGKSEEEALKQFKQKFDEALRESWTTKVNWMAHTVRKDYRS
Chain of Phosphatidylinositol 4,5-bisphosphate 3-kinase catalytic subunit gamma isoform (P48736 whole entry, canonical isoform): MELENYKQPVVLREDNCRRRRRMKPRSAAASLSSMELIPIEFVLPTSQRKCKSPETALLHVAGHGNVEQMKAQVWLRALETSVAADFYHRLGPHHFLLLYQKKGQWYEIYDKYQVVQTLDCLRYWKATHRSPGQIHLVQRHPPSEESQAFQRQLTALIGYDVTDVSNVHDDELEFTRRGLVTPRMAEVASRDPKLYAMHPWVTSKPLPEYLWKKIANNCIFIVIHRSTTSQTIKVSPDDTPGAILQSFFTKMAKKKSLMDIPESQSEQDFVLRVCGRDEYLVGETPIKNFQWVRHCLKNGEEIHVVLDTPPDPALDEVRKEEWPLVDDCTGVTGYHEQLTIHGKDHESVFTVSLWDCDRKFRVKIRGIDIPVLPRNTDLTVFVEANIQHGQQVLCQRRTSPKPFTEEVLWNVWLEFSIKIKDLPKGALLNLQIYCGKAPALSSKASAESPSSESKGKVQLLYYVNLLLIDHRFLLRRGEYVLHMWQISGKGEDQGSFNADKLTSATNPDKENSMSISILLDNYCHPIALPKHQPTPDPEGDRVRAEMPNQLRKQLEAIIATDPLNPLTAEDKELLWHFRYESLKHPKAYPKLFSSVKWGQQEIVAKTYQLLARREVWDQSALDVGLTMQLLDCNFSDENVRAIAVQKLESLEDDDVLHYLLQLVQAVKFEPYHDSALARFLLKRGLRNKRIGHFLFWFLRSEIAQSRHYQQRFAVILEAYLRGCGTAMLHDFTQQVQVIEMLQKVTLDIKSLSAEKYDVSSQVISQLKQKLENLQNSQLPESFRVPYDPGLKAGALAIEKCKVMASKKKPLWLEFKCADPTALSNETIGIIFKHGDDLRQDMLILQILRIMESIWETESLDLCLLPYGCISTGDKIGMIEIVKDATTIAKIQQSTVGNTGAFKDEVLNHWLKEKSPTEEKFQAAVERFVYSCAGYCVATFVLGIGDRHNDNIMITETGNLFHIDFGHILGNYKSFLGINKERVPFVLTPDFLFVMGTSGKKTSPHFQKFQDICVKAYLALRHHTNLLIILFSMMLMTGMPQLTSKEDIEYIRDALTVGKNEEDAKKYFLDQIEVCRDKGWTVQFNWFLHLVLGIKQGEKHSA

SMILES | IC50 (HCT-116) | IC50 (MCF7) | also measured
CCN(CC)CCNc1ncnc2ccc(-c3cnc(OC)c(C#N)c3)cc12 | 2.05 µM | 3.86 µM | –
COc1ncc(-c2ccc3ncnc(NCCN(C)C)c3c2)cc1C#N | 0.56 µM | 3.23 µM | IC50 [1]: 3.01 µM
COc1ncc(-c2ccc3ncnc(NCCN4CCCC4)c3c2)cc1C#N | 2.35 µM | 6.22 µM | –
COc1ncc(-c2ccc3ncnc(OCCN(C)C)c3c2)cc1C#N | 5.16 µM | 6.68 µM | –
COc1ncc(-c2ccc3ncnc(NCCN4CCOCC4)c3c2)cc1C#N | 0.51 µM | 2.1 µM | IC50 [2]: 37 nM; IC50 [3]: 300 nM; inhibition in vivo at 50 mg/kg (CCRF S-180 [4]): 68.4%; Activity [5]: Non-Toxic; inhibition in vivo at 15 mg/kg (CCRF S-180 [6]): 49%; IC50 [7]: 934 nM; IC50 [1]: 0.465 µM; inhibition in vivo at 5 mg/kg (CCRF S-180 [8]): 33%
COc1ncc(-c2ccc3ncnc(NCCN4CCCCC4)c3c2)cc1C#N | 2.68 µM | 2.74 µM | –
CCN(CC)CCNc1ncnc2ccc(-c3ccc(OC)nc3)cc12 | 9.56 µM | 8.74 µM | –
COc1ncc(-c2ccc3ncnc(NCCN4CCCCC4)c3c2)cc1[N+](=O)[O-] | 0.65 µM | 8.61 µM | IC50 [1]: 3.17 µM
COc1ncc(-c2ccc3ncnc(OCCN(C)C)c3c2)cc1[N+](=O)[O-] | 9.38 µM | 7.26 µM | –

Further molecules by falling IC50 (HCT-116), results first:

IC50 (HCT-116) | IC50 (MCF7) | SMILES | also measured
38.6 µM | 34.3 µM | COc1ccc(-c2ccc3ncnc(NCCN4CCOCC4)c3c2)cn1 | –
29.4 µM | 39.1 µM | COc1ccc(-c2ccc3ncnc(NCCN4CCCCC4)c3c2)cc1C(N)=O | –
24.4 µM | 29.3 µM | COc1ccc(-c2ccc3ncnc(NCCN4CCOCC4)c3c2)cc1C(N)=O | –
22.2 µM | 2.42 µM | COc1ccc(-c2ccc3ncnc(NCCN4CCCCC4)c3c2)cn1 | –
15.8 µM | 2.97 µM | COc1ccc(-c2ccc3ncnc(NCCN(C)C)c3c2)cn1 | –
7.33 µM | 16.3 µM | CCN(CC)CCNc1ncnc2ccc(-c3cnc(OC)c([N+](=O)[O-])c3)cc12 | –
3.91 µM | 10.1 µM | COc1ccc(-c2ccc3ncnc(NCCN4CCCC4)c3c2)cn1 | –
1.8 µM | 2.87 µM | COc1ncc(-c2ccc3ncnc(NCCN4CCOCC4)c3c2)cc1[N+](=O)[O-] | –
